Patent publication US20260092074A1, “Annelated Pyridines as Steroidogenesis Inhibitors, Preparation Method and Use Thereof” (Guangzhou Vinnocent Pharmaceutical Limited, priority 2022, published 2026)

Experiments:
human CYP11B1 = target: T1, human CYP11B1 (Homo sapiens, UniProt P15538); assay: Inhibition of hCYP11B1 in transfected V79 cells; format: cell-based; details: hamster V79 cells expressing human CYP11B1; substrate 11-deoxycortisol 200 nM
T1 construct: expressed in transfected cells
T1 sequence (P15538 25-503): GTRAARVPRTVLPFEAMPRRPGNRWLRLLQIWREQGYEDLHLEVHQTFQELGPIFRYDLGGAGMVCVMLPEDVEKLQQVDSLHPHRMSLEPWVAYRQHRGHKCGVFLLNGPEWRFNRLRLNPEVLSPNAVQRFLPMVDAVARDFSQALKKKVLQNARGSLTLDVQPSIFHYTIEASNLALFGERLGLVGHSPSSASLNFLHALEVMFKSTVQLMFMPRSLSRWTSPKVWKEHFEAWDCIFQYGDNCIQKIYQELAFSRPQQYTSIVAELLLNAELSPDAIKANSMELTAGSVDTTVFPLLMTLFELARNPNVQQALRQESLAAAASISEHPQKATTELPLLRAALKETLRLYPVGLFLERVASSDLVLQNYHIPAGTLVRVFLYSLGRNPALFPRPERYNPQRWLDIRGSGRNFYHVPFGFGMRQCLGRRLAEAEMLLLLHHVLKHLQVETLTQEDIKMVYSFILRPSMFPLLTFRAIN
In short: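 V79 hamster cells stably expressing human CYP11B1 and rat NADPH-P450 reductase were preincubated with compounds for 2 h. 11-Deoxycortisol (200 nM) was then added as substrate for 30 min before ethyl acetate quench. Substrate and product were quantified by LC-MS/MS or HPLC at 260 nm, and IC50 was derived from percent inhibition.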

human CYP11B2 = target: T2, human CYP11B2 (Homo sapiens, UniProt P19099); assay: Inhibition of hCYP11B2 in transfected V79 cells; format: cell-based; details: hamster V79 cells expressing human CYP11B2; substrate 11-deoxycorticosterone 200 nM
T2 construct: expressed in transfected cells
T2 sequence (P19099 25-503): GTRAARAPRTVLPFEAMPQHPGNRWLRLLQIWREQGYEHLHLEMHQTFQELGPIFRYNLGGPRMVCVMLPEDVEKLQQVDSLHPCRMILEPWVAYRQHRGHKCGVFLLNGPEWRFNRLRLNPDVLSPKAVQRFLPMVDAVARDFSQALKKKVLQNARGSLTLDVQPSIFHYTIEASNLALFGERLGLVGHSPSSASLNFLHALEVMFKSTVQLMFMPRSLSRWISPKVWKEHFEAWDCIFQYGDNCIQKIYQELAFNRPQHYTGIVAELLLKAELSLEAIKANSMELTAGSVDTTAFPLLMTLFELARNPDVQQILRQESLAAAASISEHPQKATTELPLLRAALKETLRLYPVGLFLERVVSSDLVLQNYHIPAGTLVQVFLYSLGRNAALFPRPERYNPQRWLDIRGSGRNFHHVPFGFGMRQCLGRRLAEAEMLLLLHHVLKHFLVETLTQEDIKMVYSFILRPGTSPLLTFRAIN
In short: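 Hamster V79 cells stably co-expressing human CYP11B2 and rat NADPH-P450 reductase were pre-incubated with compounds for 2 hours, then given 200 nM 11-deoxycorticosterone for 30 minutes before ethyl acetate quench. Substrate and product were quantified by LC-MS/MS or HPLC at 260 nm, and IC50 was derived from percent inhibition.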

Compound	IC50 (human CYP11B1)	IC50 (human CYP11B2)
N#Cc1ccc(-c2cncc3c2SCCN3S(=O)(=O)c2ccc(F)cc2)cc1 [S10, 4-(4-((4-Fluorophenyl)sulfonyl)-3,4-dihydro-2H-pyrido[4,3-b][1,4]thiazin-8-yl)benzonitrile]	0.8 nM	0.1 nM
Cn1ncc2ccc(-c3cncc4c3ccn4C(=O)c3ccc(F)cc3)cc21 [E35, (4-Fluorophenyl)(4-(1-methyl-1H-indazol-6-yl)-1H-pyrrolo[2,3-c]pyridin-1-yl)methanone]	857 nM	17 nM
Cc1ccccc1C(=O)N1CCSc2c(-c3ccc(C#N)cc3)cncc21 [S90, 4-(4-(2-Methylbenzoyl)-3,4-dihydro-2H-pyrido[4,3-b][1,4]thiazin-8-yl)benzonitrile]	4440 nM	64 nM
COc1cccc(CCC(=O)N2CCOc3c(-c4ccc(C#N)cc4)cncc32)c1 [O52, 4-(4-(3-(3-Methoxyphenyl)propanoyl)-3,4-dihydro-2H-pyrido[4,3-b][1,4]oxazin-8-yl)benzonitrile]	51 nM	1.1 nM
CS(=O)(=O)N1CCOc2c(-c3ccc(C#N)cc3)cncc21 [O14, 4-(4-(Methylsulfonyl)-3,4-dihydro-2H-pyrido[4,3-b][1,4]oxazin-8-yl)benzonitrile]	0.41 nM	0.2 nM
Cc1ccc(CC(=O)N2CCc3c(-c4ccc(C#N)cc4)cncc32)cc1 [C72, 4-(1-(2-(p-Tolyl)acetyl)-2,3-dihydro-1H-pyrrolo[2,3-c]pyridin-4-yl)benzonitrile]	51 nM	6.8 nM
N#Cc1ccc(-c2cncc3c2OCCN3S(=O)(=O)C2CN(c3ccc(F)cc3)C2)cc1 [O127, 4-(4-((1-(4-Fluorophenyl)azetidin-3-yl)sulfonyl)-3,4-dihydro-2H-pyrido[4,3-b][1,4]oxazin-8-yl)benzonitrile]	197 nM	2.3 nM
N#Cc1ccc(C(=O)N2CC(S(=O)(=O)N3CCOc4c(-c5ccc(C#N)cc5)cncc43)C2)cc1 [O111, 4-(4-((1-(4-Cyanobenzoyl)azetidin-3-yl)sulfonyl)-3,4-dihydro-2H-pyrido[4,3-b][1,4]oxazin-8-yl)benzonitrile]	216 nM	23.2 nM
N#Cc1ccc(-c2cncc3c2OCCN3C(=O)C2CN(S(=O)(=O)c3ccc(F)cc3)C2)cc1 [O60, 4-(4-(1-((4-Fluorophenyl)sulfonyl)azetidine-3-carbonyl)-3,4-dihydro-2H-pyrido[4,3-b][1,4]oxazin-8-yl)benzonitrile]	2.5 nM	0.6 nM
N#Cc1ccc(-c2cncc3c2OCCN3C(=O)c2cccc(F)c2)cc1 [O20, 4-(4-(3-Fluorobenzoyl)-3,4-dihydro-2H-pyrido[4,3-b][1,4]oxazin-8-yl)benzonitrile]	1730 nM	25.2 nM
N#Cc1ccc(-c2cncc3c2CCN3S(=O)(=O)c2cccc(Cl)c2)cc1 [C14, 4-(1-((3-Chlorophenyl)sulfonyl)-2,3-dihydro-1H-pyrrolo[2,3-c]pyridin-4-yl)benzonitrile]	0.9 nM	0.5 nM
COc1ccccc1C(=O)n1ccc2c(-c3ccc(C#N)cc3)cncc21 [E25, 4-(1-(2-Methoxybenzoyl)-1H-pyrrolo[2,3-c]pyridin-4-yl)benzonitrile]	98 nM	2.1 nM
N#Cc1ccc(-c2cncc3c2CCN3C(=O)c2ccco2)cc1 [C44, 4-(1-(Furan-2-carbonyl)-2,3-dihydro-1H-pyrrolo[2,3-c]pyridin-4-yl)benzonitrile]	139 nM	27 nM
Cc1ccc(S(=O)(=O)N2CCOc3c(-c4ccc(C#N)cc4)cncc32)cc1 [O4, 4-(4-Tosyl-3,4-dihydro-2H-pyrido[4,3-b][1,4]oxazin-8-yl)benzonitrile]	0.1 nM	0.1 nM
N#Cc1ccc(-c2cncc3c2OCCN3C(=O)c2ccco2)cc1 [O31, 4-(4-(Furan-2-carbonyl)-3,4-dihydro-2H-pyrido[4,3-b][1,4]oxazin-8-yl)benzonitrile]	187 nM	2.8 nM
Cn1cc(S(=O)(=O)N2CCSc3c(-c4cc5cc(Cl)ccc5o4)cncc32)cn1 [S55, 8-(5-Chlorobenzofuran-2-yl)-4-((1-methyl-1H-pyrazol-4-yl)sulfonyl)-3,4-dihydro-2H-pyrido[4,3-b][1,4]thiazine]	10.6 nM	0.2 nM
N#Cc1ccc(-c2cncc3c2CCN3C(=O)c2ccc([N+](=O)[O-])cc2)cc1 [C30, 4-(1-(4-Nitrobenzoyl)-2,3-dihydro-1H-pyrrolo[2,3-c]pyridin-4-yl)benzonitrile]	472 nM	11 nM
N#Cc1ccc(-c2cncc3ncn(C4CC4)c23)cc1 [N7, 4-(1-Cyclopropyl-1H-imidazo[4,5-c]pyridin-7-yl)benzonitrile]	453 nM	679 nM
N#Cc1ccc(-c2cncc3c2CCN3C(=O)c2cccc(C(F)(F)F)c2)cc1 [C23, 4-(1-(3-(Trifluoromethyl)benzoyl)-2,3-dihydro-1H-pyrrolo[2,3-c]pyridin-4-yl)benzonitrile]	310 nM	7 nM
N#Cc1ccc(-c2cncc3c2CCN3C(=O)Cc2ccccc2F)cc1 [C67, 4-(1-(2-(2-Fluorophenyl)acetyl)-2,3-dihydro-1H-pyrrolo[2,3-c]pyridin-4-yl)benzonitrile]	277 nM	6.5 nM
N#Cc1cccc(-c2cncc3c2CCN3C(=O)c2ccccc2F)c1 [C55, 3-(1-(2-Fluorobenzoyl)-2,3-dihydro-1H-pyrrolo[2,3-c]pyridin-4-yl)benzonitrile]	973 nM	29 nM
N#Cc1ccc(-c2cncc3c2OCCN3C(=O)[C@H]2CCN(Cc3cccc(F)c3)C2)cc1 [O104, (S)-4-(4-(1-(3-Fluorobenzyl)pyrrolidine-3-carbonyl)-3,4-dihydro-2H-pyrido[4,3-b][1,4]oxazin-8-yl)benzonitrile]	468 nM	4.1 nM
N#Cc1ccc(-c2cncc3c2OCCN3C(=O)C23CC(Nc4cccc(F)c4)(C2)C3)cc1 [O71, 4-(4-(3-((3-Fluorophenyl)amino)bicyclo[1.1.1]pentane-1-carbonyl)-3,4-dihydro-2H-pyrido[4,3-b][1,4]oxazin-8-yl)benzonitrile]	2170 nM	39 nM
N#Cc1ccc(-c2cncc3c2OCCN3C(=O)c2ccc(Oc3ccc(F)cc3)s2)cc1 [O72, 4-(4-(5-(4-Fluorophenoxy)thiophene-2-carbonyl)-3,4-dihydro-2H-pyrido[4,3-b][1,4]oxazin-8-yl)benzonitrile]	292 nM	3.6 nM
N#Cc1ccc(-c2cncc3c2SCCN3S(=O)(=O)c2cccc3ccccc23)cc1 [S22, 4-(4-(Naphthalen-1-ylsulfonyl)-3,4-dihydro-2H-pyrido[4,3-b][1,4]thiazin-8-yl)benzonitrile]	51 nM	5.2 nM
N#Cc1ccc(-c2cncc3c2SCCN3S(=O)(=O)c2ccc(C(F)(F)F)cc2)cc1 [S17, 4-(4-((4-(Trifluoromethyl)phenyl)sulfonyl)-3,4-dihydro-2H-pyrido[4,3-b][1,4]thiazin-8-yl) benzonitrile]	10.2 nM	0.4 nM
N#Cc1ccc(-c2cncc3c2SCCN3Cc2ccc(F)cc2)cc1 [S2, 4-(4-(4-Fluorobenzyl)-3,4-dihydro-2H-pyrido[4,3-b][1,4]thiazin-8-yl)benzonitrile]	> 5000 nM	473 nM
N#CN1CC2(C1)CN(c1cncc3c1OCCN3C(=O)C1CN(Cc3cccc(F)c3)C1)C2 [O134, 6-(4-(1-(3-Fluorobenzyl)azetidine-3-carbonyl)-3,4-dihydro-2H-pyrido[4,3-b][1,4]oxazin-8-yl)-2,6-diazaspiro[3.3]heptane-2-carbonitrile]	3580 nM	52 nM
N#Cc1ccc(S(=O)(=O)N2CCSc3c(-c4ccn5ccnc5c4)cncc32)cc1 [S50, 4-((8-(Imidazo[1,2-a]pyridin-7-yl)-2,3-dihydro-4H-pyrido[4,3-b][1,4]thiazin-4-yl)sulfonyl)benzonitrile]	298 nM	52 nM
N#Cc1ccc(-c2cncc3c2OCCN3C(=O)N2CC(Cc3cccc(F)c3)C2)cc1 [O136, 4-(4-(3-(3-Fluorobenzyl)azetidine-1-carbonyl)-3,4-dihydro-2H-pyrido[4,3-b][1,4]oxazin-8-yl)benzonitrile]	2020 nM	22 nM
